Data taken from US20240109881A1, “Heteroaryl Compounds as Ligand Directed Degraders of IRAK4” (Bristol-Myers Squibb Company, priority 2022, published 2024).

Legend:
IRAK4 [1] = target: T1, IRAK4 (Homo sapiens, UniProt Q9NWZ3); assay: LVL THP1 HTRF (THP1 Homogeneous Time Resolved Fluorescence); type: cell-based; conditions: THP1 cells, 18 h incubation with compound; for DC50: read-out: LVL THP1 HTRF EC50
T1 construct: endogenous in cells; host or cells: THP-1 cells
T1 sequence (Q9NWZ3 1-460): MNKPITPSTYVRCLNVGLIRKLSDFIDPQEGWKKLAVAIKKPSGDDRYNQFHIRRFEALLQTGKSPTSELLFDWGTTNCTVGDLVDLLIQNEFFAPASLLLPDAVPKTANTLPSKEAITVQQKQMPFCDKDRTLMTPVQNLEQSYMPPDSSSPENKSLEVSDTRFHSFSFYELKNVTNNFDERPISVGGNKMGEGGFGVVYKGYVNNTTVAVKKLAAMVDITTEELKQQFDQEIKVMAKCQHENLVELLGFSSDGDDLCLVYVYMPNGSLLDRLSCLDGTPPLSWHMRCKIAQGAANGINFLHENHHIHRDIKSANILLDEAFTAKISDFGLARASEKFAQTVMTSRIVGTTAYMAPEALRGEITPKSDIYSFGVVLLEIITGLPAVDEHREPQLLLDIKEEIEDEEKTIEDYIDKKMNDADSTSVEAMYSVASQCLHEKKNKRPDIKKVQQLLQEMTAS
Summary of the method: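 THP-1 cells in phenol red-free RPMI with 10% FBS were dosed with compound (20 nL in DMSO) for 18 h at 37° C. After 2 h lysis, IRAK4 was detected with anti-IRAK4-d2/anti-IRAK4-K HTRF antibodies for 18 h at room temperature and read at 665/615 nm; a parallel CTG plate was run.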

IRAK4 [2] = target: T1, IRAK4; assay: ALE THP1 HTRF (Advanced Lipoxidation End Product THP1 Homogeneous Time Resolved Fluorescence); type: cell-based; conditions: THP1 cells
Summary of the method: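 Cells lysed 45 min at room temperature; lysates normalized to total protein by BCA. Total IRAK4 detected by HTRF sandwich (anti-IRAK4-d2 plus anti-IRAK4-cryptate), incubated overnight in the dark at room temperature, read on a time-resolved fluorescence plate reader.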

| Compound | LVL THP1 HTRF YMIN (IRAK4 [1]) [%] | DC50 (IRAK4 [1]) [nM] | ALE THP1 HTRF YMIN (IRAK4 [2]) [%] | EC50 (IRAK4 [2]) [nM] |
| --- | --- | --- | --- | --- |
| C[C@H](C#N)Nc1cc(-n2ncc3cc(C#N)cnc32)ncc1-n1cc(C2CCC(CCN3CCN(c4ccc(C5CCC(=O)NC5=O)cc4)[C@@H](C)C3)CC2)nn1 (stereo in doubt) [P-156] | 2.0 | 8 | 10.1 | 1 |
| N#Cc1cnc2c(cnn2-c2cc(NC3CC3)c(C(=O)N[C@H]3CC[C@H](CN4CCC5(CCN(c6ccc7c(c6)CN(C6CCC(=O)NC6=O)C7=O)CC5)C4)CC3)cn2)c1 (stereo partly drawn) [P-130] | – | – | 20.0 | 15 |
| N#Cc1cc2cnn(-c3cc(NC4CC4)c(C(=O)N[C@H]4CC[C@H](CCN5CCN(c6ccc(C7CCC(=O)NC7=O)cc6)CC5)CC4)cn3)c2nc1N (stereo partly drawn) [P-131] | – | – | 5.3 | 3 |
| CS(=O)(=O)N1CCC(Nc2cc(-n3ncc4cc(C#N)cnc43)ncc2C(=O)N[C@H]2CC[C@H](CCN3CCN(c4ccc(C5CCC(=O)NC5=O)cc4)CC3)CC2)CC1 (stereo partly drawn) [P-132] | – | – | 7.9 | 13 |
| CS(=O)(=O)N1CCC(Nc2cc(-n3ncc4cc(C#N)c(N)nc43)ncc2C(=O)N[C@H]2CC[C@H](CCN3CCN(c4ccc(C5CCC(=O)NC5=O)cc4)CC3)CC2)CC1 (stereo partly drawn) [P-133] | – | – | 6.9 | 10 |
| CC(C)Nc1cc(Nc2ccc(C#N)cc2Cl)ncc1C(=O)N[C@H]1CC[C@H](CCN2CCN(c3ccc(C4CCC(=O)NC4=O)cc3)CC2)CC1 (stereo partly drawn) [P-134] | – | – | 20.9 | 94 |
| C[C@H](C#N)Nc1cc(-n2ncc3cc(C#N)c(N)nc32)ncc1C(=O)N[C@H]1CC[C@H](CCN2CCN(c3ccc(C4CCC(=O)NC4=O)cc3)CC2)CC1 (stereo partly drawn) [P-135] | – | – | 7.3 | 1 |
| C[C@H](C#N)Nc1cc(-n2ncc3cc(C#N)cnc32)ncc1C(=O)N[C@H]1CC[C@H](CCN2CCN(c3ccc(C4(C)CCC(=O)NC4=O)cc3)CC2)CC1 (stereo partly drawn) [P-136] | – | – | 7.4 | 6 |
| N#Cc1cnc2c(cnn2-c2cc(NC3CCC(C(N)=O)CC3)c(C(=O)N[C@H]3CC[C@H](CCN4CCN(c5ccc(C6CCC(=O)NC6=O)cc5)CC4)CC3)cn2)c1 (stereo partly drawn) [P-137] | – | – | 7.7 | 18 |
| CCNc1cc(Nc2ccc3ncc(F)cc3n2)ncc1C(=O)N[C@H]1CC[C@H](CCN2CCN(c3ccc(C4CCC(=O)NC4=O)cc3)CC2)CC1 (stereo partly drawn) [P-138] | – | – | 42.1 | 1280 |
| CC1(Nc2cc(-n3ncc4cc(C#N)cnc43)ncc2-n2cc([C@H]3CC[C@H](CCN4CCN(c5ccc(C6CCC(=O)NC6=O)cc5)CC4)CC3)nn2)CC1 (stereo partly drawn) [P-140] | – | – | 6.4 | 30 |
| O=C1CCC(c2ccc(N3CCN(CC[C@H]4CC[C@H](NC(=O)c5cnc(Nc6ccc7[nH]c(=O)sc7c6)cc5NC5CC5)CC4)CC3)cc2)C(=O)N1 (stereo partly drawn) [P-141] | – | – | 6.1 | < 1 |
| C[C@H](C#N)Nc1cc(-n2ncc3cc(C#N)c(N)nc32)ncc1C(=O)N[C@H]1CC[C@H](CCN2CCN(c3ccc(C4CCC(=O)NC4=O)cc3)[C@H](C)C2)CC1 (stereo partly drawn) [P-142] | – | – | 9.7 | 46 |
| C[C@H](C#N)Nc1cc(-n2ncc3cc(C#N)cnc32)ncc1C(=O)N[C@H]1CC[C@H](CCN2CCC(c3ccc(C4CCC(=O)NC4=O)cc3)CC2)CC1 (stereo partly drawn) [P-143] | – | – | 6.5 | 4 |
| C[C@H](C#N)Nc1cc(-c2ccc3cc(C#N)cnn23)ncc1C(=O)N[C@H]1CC[C@H](CCN2CCN(c3ccc(C4CCC(=O)NC4=O)cc3)CC2)CC1 (stereo partly drawn) [P-144] | 0.8 | 13 | 5.9 | 4 |
| C[C@H](C#N)Nc1cc(-n2cc(F)c3cc(C#N)cnc32)ncc1C(=O)N[C@H]1CC[C@H](CCN2CCN(c3ccc(C4CCC(=O)NC4=O)cc3)CC2)CC1 (stereo partly drawn) [P-145] | – | – | 11.0 | 35 |
| C[C@H](C#N)Nc1cc(-n2ncc3cc(C#N)c(N)nc32)ncc1C(=O)N[C@H]1CC[C@H](CCN2CCC(c3ccc(C4CCC(=O)NC4=O)cc3)CC2)CC1 (stereo partly drawn) [P-146] | – | – | 8.0 | 1 |
| C[C@H](C#N)Nc1cc(-c2cnc3cc(C#N)cnn23)ncc1C(=O)N[C@H]1CC[C@H](CCN2CCN(c3ccc(C4CCC(=O)NC4=O)cc3)CC2)CC1 (stereo partly drawn) [P-147] | – | – | 9.0 | 19 |
| C[C@H](C#N)Nc1cc(-c2cnc3cc(C#N)cnn23)ncc1C(=O)N[C@H]1CC[C@H](CCN2CCC(c3ccc(C4CCC(=O)NC4=O)cc3)CC2)CC1 (stereo partly drawn) [P-148] | – | – | 11.0 | 16 |
| C[C@H](C#N)Nc1cc(-n2ncc3cc(C#N)cnc32)ncc1C(=O)N[C@H]1CC[C@H](CCN2[C@@H](C)CN(c3ccc(C4CCC(=O)NC4=O)cc3)C[C@@H]2C)CC1 (stereo partly drawn) [P-149] | – | – | 7.1 | 4 |
| C[C@H](C#N)Nc1cc(-n2ncc3cc(C#N)cnc32)ncc1C(=O)N[C@H]1CC[C@H](CCN2CCN(c3ccc(C4CCC(=O)NC4=O)cc3)[C@H](C)C2)CC1 (stereo partly drawn) [P-150] | <0.5 | 25 | 6.2 | 7 |
| C[C@H](C#N)Nc1cc(-n2ncc3cc(C#N)cnc32)ncc1C(=O)N[C@H]1CC[C@H](CCN2C[C@@H](C)N(c3ccc(C4CCC(=O)NC4=O)cc3)C[C@@H]2C)CC1 (stereo partly drawn) [P-151] | – | – | 6.0 | 8 |
| C[C@H](C#N)Nc1cc(-n2ncc3cc(C#N)cnc32)ncc1C(=O)N[C@H]1CC[C@H](CCN2CCN(c3ccc(C4CCC(=O)NC4=O)cn3)[C@H](C)C2)CC1 (stereo partly drawn) [P-152] | – | – | 15.8 | 20 |
| COc1cc(N2C[C@H](C)N(CC[C@H]3CC[C@H](NC(=O)c4cnc(-n5ncc6cc(C#N)cnc65)cc4N[C@H](C)C#N)CC3)[C@@H](C)C2)ccc1C1CCC(=O)NC1=O (stereo partly drawn) [P-153] | – | – | 4.5 | 17 |
| N#Cc1cnc2c(cnn2-c2cc(NC3CC3)c(-n3cc([C@H]4CC[C@H](CCN5CCN(c6ccc(C7CCC(=O)NC7=O)cc6)CC5)CC4)nn3)cn2)c1 (stereo partly drawn) [P-154] | – | – | 10.0 | 22 |
| CC1(Nc2cc(-n3ncc4cc(C#N)c(N)nc43)ncc2-n2cc([C@H]3CC[C@H](CCN4CCN(c5ccc(C6CCC(=O)NC6=O)cc5)CC4)CC3)nn2)CC1 (stereo partly drawn) [P-157] | – | – | 10.0 | 2 |
| C[C@H](C#N)Nc1cc(-n2ncc3cc(C#N)cnc32)ncc1C(=O)N[C@H]1CC[C@H](CCN2C[C@H](C)N(c3ccc(C4CCC(=O)NC4=O)cc3)C[C@@H]2C)CC1 (stereo partly drawn) [P-158] | – | – | 16.0 | 65 |
| C[C@H](C#N)Nc1cc(-n2ncc3cnc(N)nc32)ncc1C(=O)N[C@H]1CC[C@H](CCN2CCN(c3ccc(C4CCC(=O)NC4=O)cc3)CC2)CC1 (stereo partly drawn) [P-159] | <0.5 | 18 | 6.1 | 7 |
| COc1cc(N2CCN(CC[C@H]3CC[C@H](NC(=O)c4cnc(-n5ncc6cc(C#N)c(N)nc65)cc4N[C@H](C)C#N)CC3)C[C@H]2C)ccc1C1CCC(=O)NC1=O (stereo partly drawn) [P-161] | <0.5 | 12 | 6.6 | 6 |
| N#Cc1cc2cnn(-c3cc(NC4CC4)c(-n4cc([C@H]5CC[C@H](CCN6CCN(c7ccc(C8CCC(=O)NC8=O)cc7)CC6)CC5)nn4)cn3)c2nc1N (stereo partly drawn) [P-162] | 0.6 | 8 | 6.4 | 3 |
